Experimental data reported in patent publication US20250145631A1, “HETEROCYCLIC COMPOUND ACTING ON G12D MUTANT KRAS PROTEIN” (Astellas Pharma Inc., priority 2022, published 2025).
pIC50: −log10 of the molar value.

Tests used:
Type in all cases: cell-based
[1] = target: T1, KRAS G12D (Homo sapiens, UniProt P01116, G12D); assay: KRAS degradation activity by Cell ELISA in AsPC-1 cells (Test Example 1); conditions: Cell ELISA; for Dmax: ASPC1, overnight treatment, read-out: Dmax (degradation rate at the concentration showing highest degradation); for DC50: overnight treatment, read-out: DC50 (50% degradation concentration of KRAS)
T1 construct: host or cells: AsPC-1 (human pancreatic cancer line)
Description: The KRAS degradation activity of test compounds was evaluated by measuring the expression levels of KRAS G12D by Cell ELISA.
AsPC-1 cells were seeded at 20 μL per well on 384-well plates (from Greiner bio-one) to give 2.0×10^4 cells per well. As for the cell culture conditions, RPMI 1640 (from Sigma-Aldrich) medium containing 10% fetal bovine serum (from Cytiva) was used in the presence of 5% CO2 at 37° C.
The next day, the test compounds (10 points having final concentrations in the range of 10 μM to 0.3 nM) and DMSO (from FUJIFILM Wako Pure Chemical Corporation), which was the solvent for the test compounds, as a negative control were diluted 500-fold with a fresh medium and were added at 20 μL per well. The cells were cultured overnight. The next day, the culture supernatant was removed, and 4% paraformaldehyde phosphate buffer (from FUJIFILM Wako Pure Chemical Corporation) was added at 20 μL per well. The plates were allowed to stand for 30 minutes at room temperature to thus immobilize the cells. Then, the supernatant was removed, and 0.1% Triton X-100 (from Amersham Biosciences)-containing Phosphate buffered saline (PBS; from FUJIFILM Wako Pure Chemical Corporation) was added at 20 μL per well. After allowing to stand for 10 minutes at room temperature, the supernatant was removed. PBS was added at 25 μL per well, and the supernatant was removed to thus wash each well. The washing was performed twice in total. Next, the supernatant was removed, and 0.5% sodium dodecyl sulfate (SDS; from Invitrogen)-containing PBS was added at 20 μL per well. After allowing to stand at room temperature for 10 minutes, the supernatant was removed by a centrifugal operation (using a centrifugal dehydrator machine, the supernatant was removed by the same method hereinafter). PBS was added at 25 μL per well, and the supernatant was removed to thus wash each well. The washing was performed twice in total. The supernatant was removed, and blocking solution (Intercept Blocking Buffer; from Li—COR Biosciences) was added at 20 μL per well. After allowing to stand for 30 minutes at room temperature, the supernatant was removed, and a solution obtained by diluting anti-β-actin antibody (Anti-beta Actin antibody [mAbcam 8226]-Loading Control; from abcam) 1,000-fold with blocking solution and a solution obtained by diluting anti-Ras (G12D Mutant Specific) antibody (Ras (G12D Mutant Specific) (D8H7) Rabbit mAb #14429; from Cell Signaling Technology) and anti-β-actin antibody (from abcam) 1,000-fold with blocking solution were respectively added to positive control wells and the other wells at 15 μL per well as a primary antibody. The plates were allowed to stand overnight at 4° C.
The next day, the supernatant was removed. PBS was added at 25 μL per well, and the supernatant was removed to thus wash each well. The washing was performed twice in total. The supernatant was removed, and a solution obtained by diluting Donkey anti-Mouse IgG H&L (IRDye 680RD) (from Li—COR Biosciences) and Goat anti-Rabbit IgG H&L (IRDye 800CW) (from Li—COR Biosciences) 1,000-fold with blocking solution was added at 15 μL per well as a secondary antibody. A solution obtained by diluting Donkey anti-Mouse IgG H&L (IRDye 680RD) (from Li—COR Biosciences) 1,000-fold with blocking solution was added to a positive control well as a secondary antibody. After allowing to stand for 1 hour at room temperature, the supernatant was removed. PBS was added at […], and the supernatant was removed to thus wash each well. The washing was performed twice in total. After removing the supernatant, the plates were dried with air at room temperature for 2 hours or more, and the 700 nm and 800 nm fluorescent signals were measured with Aerius (from Li—COR Biosciences). […]

[2] = system: phosphorylation of ERK (Thr202/Tyr204); assay: ERK phosphorylation inhibitory effect by Cell ELISA in AsPC-1 cells (Test Example 2); conditions: Homo sapiens, ASPC1, overnight treatment, Cell ELISA, read-out: IC50 (ERK phosphorylation inhibition)
Description: The ERK phosphorylation inhibitory effect of test compounds was evaluated by measuring phosphorylation of threonine 202 (Thr202) and tyrosine 204 (Tyr204) of ERK located downstream of the KRAS signal by Cell ELISA.
AsPC-1 cells were seeded on 384-well plates at 20 µL/well to give 2.0×10^4 cells per well. As for the cell culture conditions, RPMI 1640 medium containing 10% fetal bovine serum was used in the presence of 5% CO2 at 37° C.
The next day, the test compounds (10 points having final concentrations in the range of 10 μM to 0.3 nM), trametinib (MEK inhibitor) of a final concentration of […] as positive control and DMSO, which was the solvent for the test compounds, as negative control were diluted 500-fold with a fresh medium and were added at 20 μL per well. The cells were cultured overnight. After culturing, 30% glyoxal solution (40% glyoxal [from Nacalai Tesque]was diluted with PBS) was quickly added at 30 μL per well, and the plates were allowed to stand for 120 minutes at room temperature to thus immobilize the cells. Then, the plates were centrifuged to remove the supernatant (using a centrifugal dehydrator machine, the supernatant was removed by the same method hereinafter), and 0.10% Triton X-100-containing PBS was added at 20 μL per well. After allowing to stand for 10 minutes at room temperature, the supernatant was removed, and the same operation was further repeated. Next, 0.5% SDS-containing PBS was added at 20 μL per well, and after allowing to stand at room temperature for 30 minutes, the supernatant was removed. Subsequently, blocking solution (Intercept Blocking Buffer) was added at 20 μL per well, and the plates were allowed to stand for 1 hour at room temperature. The supernatant was removed, and an ERK (Thr202/Tyr204) phosphorylation antibody (Phospho-p44/42 MAPK (Erk 1/2) (Thr202/Tyr204) (D13.14.4E) XP Rabbit mAb; from Cell Signaling Technology) diluted 2,500-fold with blocking solution was added at 15 μL per well as a primary antibody. The plates were allowed to stand at 4° C. overnight.
The next day, the supernatant was removed. 0.05% Tween-20 (from Thermo Fisher Scientific)-containing PBS was added at 50 μL per well, and the supernatant was removed to thus wash each well. The washing was performed three times in total. After washing, Goat anti-Rabbit IgG H&L (IRDye 800CW) diluted 1,000-fold with blocking solution was added at 15 μL per well as a secondary antibody, and the plates were allowed to stand for 1 hour at room temperature. The supernatant was removed, and each well was washed three times with 0.05% Tween-20-containing PBS in the same manner as after the primary antibody reaction. After removing the supernatant, the plates were dried with air at room temperature for 3 hours or more, and the 800-nm fluorescent signals were measured with Aerius.
With the signaling value at the time of addition of DMSO taken as 100% and with the signaling value at the time of addition of […] trametinib taken as 0%, the 50% inhibitory concentration values (IC50) were calculated by Sigmoid-Emax nonlinear regression analysis. The calculated 50% inhibition represents the inhibition at the highest concentration evaluated (10 μM) for a compound that exceeds the concentration in the evaluation range.
(§1) In the tables presented below, Ex represents Example No. The IC50 of Ex. 13, Ex. 15, and Ex. 16 were calculated using the molecular weights as tetrahydrochloride, and the IC50 of Ex. 14 was calculated using the molecular weight as trihydrochloride.

[3] = system: human G12D mutant KRAS-positive pancreatic cancer line AsPC-1; assay: Non-anchorage-dependent cell growth inhibitory effect, spheroid 3D culture (Test Example 3); conditions: ASPC1, 144 h, AsPC-1 spheroid 3D culture, 6 days, CellTiter Glo 2.0, read-out: IC50 (non-anchorage-dependent cell growth inhibition)
Description: The non-anchorage-dependent cell growth inhibitory effect of test compounds was evaluated by spheroid 3D cell culture.
AsPC-1 cells were seeded on low-cell-adhesive round bottom 384-well plates (PrimeSurface: from Sumitomo Bakelite) at 20 μL (or […])/well to give 5×10^2 cells per well. As for the cell culture conditions, RPMI 1640 medium containing 10% fetal bovine serum was used in the presence of 5% CO2 at 37° C.
The next day, the test compounds (10 points or 6 points having final concentrations in the range of 10 μM to 0.3 nM) and DMSO, which was the solvent for the test compounds, as a negative control were diluted 500-fold (or 100-fold) with a fresh medium and were added at 20 μL (or […]) per well. After culturing in the presence of 5% C02 at 37° C. for 6 days, CellTiter Glo 2.0 (from Promega) was added at 20 μL per well. After stirring with a plate mixer (from FINEPCR) at normal temperature for 1 hour, the luminescent signals were measured with ARVO X3 (from PerkinElmer).
With the signaling value in treatment with DMSO taken as 100% and with the signaling value in the medium alone without cells taken as 0%, the 50% inhibitory concentration values (IC50) were calculated by Sigmoid-Emax nonlinear regression analysis. The calculated 50% inhibition represents the inhibition at the highest concentration evaluated (10 μM) for a compound that exceeds the concentration in the evaluation range.
as §1

T1 sequence (P01116 1-188 isoform P01116-2 G12D): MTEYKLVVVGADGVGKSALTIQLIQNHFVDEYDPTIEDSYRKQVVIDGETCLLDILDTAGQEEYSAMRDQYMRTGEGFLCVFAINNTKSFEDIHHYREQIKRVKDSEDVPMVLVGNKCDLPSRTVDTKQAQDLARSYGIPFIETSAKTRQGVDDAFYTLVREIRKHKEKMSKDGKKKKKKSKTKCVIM

Row | Structure (SMILES) | Dmax [1] [%] | DC50 [1] [nM] | pIC50 [2] | pIC50 [3]
1 | CO[C@H](C)COc1nc(N2C[C@@H]3C[C@H]2CN3)c2cc(C3CC3)c(-c3c(C)c(F)cc4[nH]ncc34)c(OCc3ccc(C(=O)N4CCN(Cc5ccc6c(c5)n(C)c(=O)n6C5CCC(=O)NC5=O)C[C@@H]4C)cc3)c2n1 (stereo partly shown) [Example 38] | 86 | 22 | 7.51 | 7.29
2 | Cc1nc(N2CCN(C(=O)c3ccc(COc4c(-c5c(C)c(F)cc6[nH]ncc56)c(C5CC5)cc5c(N6C[C@@H]7C[C@H]6CN7)nc(OC6CCOCC6)nc45)cc3)CC2)ccc1N1CCC(=O)NC1=O (atropisomer, axis not shown) [Example 14] | 51 | 2180 | 5.82 | 5.95
3 | Cc1c(F)cc2[nH]ncc2c1-c1c(C2CC2)cc2c(N3C[C@@H]4C[C@H]3CN4)nc(OC3CCOCC3)nc2c1OCc1ccc(C(=O)N2CCN(Cc3ccc4c(N5CCC(=O)NC5=O)nn(C)c4c3)CC2)cc1 (atropisomer, axis not shown) [Example 13] | 66 | 408 | 6.22 | 5.91
4 | Cc1c(F)cc2[nH]ncc2c1-c1c(C2CC2)cc2c(N3C[C@@H]4C[C@H]3CN4)nc(OC3CCOCC3)nc2c1OCc1ccc(C(=O)N2CCN(Cc3ccc4c(n3)n(C)c(=O)n4C3CCC(=O)NC3=O)CC2)cc1 (stereo partly shown) [Example 11] | 84 | 58 | 7.23 | 6.85
5 | Cc1c(F)cc2[nH]ncc2c1-c1c(C2CC2)cc2c(N3C[C@@H]4C[C@H]3CN4)nc(OC3CCOCC3)nc2c1OCc1ccc(C(=O)N2C3CCC2CN(Cc2ccc4c(c2)C(=O)N(C2CCC(=O)NC2=O)C4=O)C3)cc1 (stereo partly drawn) [Example 5, 5-[(8-{4-[({(7M)-6-cyclopropyl-4-[(1S,4S)-2,5-diazabicyclo[2.2.1]heptan-2-yl]-7-(6-fluoro-5-methyl-1H-indazol-4-yl)-2-[(oxan-4-yl)oxy]quinazolin-8-yl}oxy)methyl]benzoyl}-3,8-diazabicyclo[3.2.1]octan-3-yl)methyl]-2-(2,6-dioxopiperidin-3-yl)-1H-isoindole-1,3(2H)-dione] | 84 | 308 | 6.48 | 6.31
6 | Cc1c(F)cc2[nH]ncc2c1-c1c(C2CC2)cc2c(N3C[C@@H]4C[C@H]3CN4)nc(OC3CCOCC3)nc2c1OCc1ccc(C(=O)N2CCN(Cc3ccc4c(N5CCC(=O)NC5=O)nn(C)c4n3)C[C@@H]2C)cc1 (atropisomer, axis not shown) [Example 24] | 78 | 297 | 6.64 | 6.65
7 | Cc1c(F)cc2[nH]ncc2c1-c1c(C2CC2)cc2c(N3C[C@@H]4C[C@H]3CN4)nc(OC3CCOCC3)nc2c1OCc1ccc(C(=O)N2CCN(CCOc3cccc(N4CCC(=O)NC4=O)c3)CC2)cc1 (atropisomer, axis not shown) [Example 28] | 54 | 5530 | 5.66 | 5.70
8 | Cc1c(F)cc2[nH]ncc2c1-c1c(C2CC2)cc2c(N3C[C@@H]4C[C@H]3CN4)nc(O[C@H]3CCOC3)nc2c1OCc1ccc(C(=O)N2CCN(Cc3ccc4c(c3)n(C)c(=O)n4C3CCC(=O)NC3=O)C[C@@H]2C)cc1 (stereo partly shown) [Example 41] | 78 | 52 | 7.05 | 6.81
9 | Cc1c(F)cc2[nH]ncc2c1-c1c(C2CC2)cc2c(N3C[C@@H]4C[C@H]3CN4)nc(OC3CCOCC3)nc2c1OCc1ccc(C(=O)N2CCN(Cc3ccc(CN4CCC(=O)NC4=O)cc3F)C[C@@H]2C)cc1 (atropisomer, axis not shown) [Example 26] | 67 | 5220 | 5.69 | 5.87
10 | Cc1c(F)cc2[nH]ncc2c1-c1c(C2CC2)cc2c(N3C[C@@H]4C[C@H]3CN4)nc(OC3CCOCC3)nc2c1OCc1ccc(C(=O)N2CC[C@H](N(C)Cc3ccc4c(N5CCC(=O)NC5=O)nn(C)c4c3)C2)cc1 (atropisomer, axis not shown) [Example 20] | 78 | 488 | 5.97 | 6.05
